In patent US7759345B2, “Antitumoral derivatives of ET-743” (priority 2001, dated 2010):

What was measured:
LoVo-Dox = experiment: Inhibition of cells growth by colorimetric assay (SRB), LoVo-Dox; assay type: cell-based; settings: SRB, 48 hours exposure; for GI50 / CC50: Homo sapiens, 48 h; for GI50 / LOVO-DOX TGI: LOVO-DOX; for GI50: read-out: LOVO-DOX GI50; for CC50: read-out: LOVO-DOX LC50, LOVO-DOX
Method in brief: (§1)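 48 h SRB cytotoxicity assay; compound range 10–10^−8 μg/ml; seeding 5×10^3 cells/well, 18 h pre-attachment; OD 490 nm; GI, TGI, LC from triplicate means ± SD.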

LoVo = experiment: Inhibition of cells growth by colorimetric assay (SRB), LoVo; assay type: cell-based; settings: SRB, 48 hours exposure; for GI50 / LC50 (concentration for 50% cell killing): Homo sapiens, LoVo, 48 h; for GI50 / LOVO TGI: LOVO; for GI50: read-out: LOVO GI50; for LC50 (concentration for 50% cell killing): read-out: LOVO LC50, LOVO
Method in brief: as §1

HT-29 = experiment: Inhibition of cells growth by colorimetric assay (SRB), HT-29; assay type: cell-based; settings: SRB, 48 hours exposure; for GI50 / LC50 (concentration for 50% cell killing): Homo sapiens, HT-29, 48 h; for HT-29 TGI / GI50: HT-29; for GI50: read-out: HT-29 GI50; for LC50 (concentration for 50% cell killing): read-out: HT-29 LC50, HT-29
Method in brief: as §1

IGROV-1 = experiment: Inhibition of cells growth by colorimetric assay (SRB), IGROV-1; assay type: cell-based; settings: SRB, 48 hours exposure; for GI50 / CC50: Homo sapiens, IGROV-1, 48 h; for GI50 / IGROV TGI: IGROV; for GI50: read-out: IGROV GI50; for CC50: read-out: IGROV LC50, IGROV
Method in brief: as §1

SK-BR-3 = experiment: Inhibition of cells growth by colorimetric assay (SRB), SK-BR-3; assay type: cell-based; settings: SRB, 48 hours exposure; for GI50 / CC50: Homo sapiens, SK-BR-3, 48 h; for GI50 / SK-BR3 TGI: SK-BR3; for GI50: read-out: SK-BR3 GI50; for CC50: read-out: SK-BR3 LC50, SK-BR3
Method in brief: as §1

HMEC1 = experiment: Inhibition of cells growth by colorimetric assay (SRB), HMEC1; assay type: cell-based; settings: SRB, 48 hours exposure; for GI50 / LC50: Homo sapiens, HMEC-1, 48 h; for HMEC-1 TGI / GI50: HMEC-1; for GI50: read-out: HMEC-1 GI50; for LC50: read-out: HMEC-1 LC50, HMEC-1
Method in brief: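 Cells in RPMI 1640 with 10% FBS were seeded at 5×10^3 per well, allowed 18 h to attach, then exposed to compound (10 to 10^−8 μg/ml, in DMSO/EtOH/PBS 0.5:0.5:99) for 48 h. After TCA fixation and SRB staining, bound dye was solubilized in Tris and OD read at 490 nm; GI, TGI and LC derived from triplicates.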

SK-OV-3 = experiment: Inhibition of cells growth by colorimetric assay (SRB), SK-OV-3; assay type: cell-based; settings: SRB, 48 hours exposure; for GI50 / LC50: Homo sapiens, SK-OV-3, 48 h; for GI50 / SK-OV3 TGI: SK-OV3; for GI50: read-out: SK-OV3 GI50; for LC50: read-out: SK-OV3 LC50, SK-OV3
Method in brief: as §1

DU-145 = experiment: Inhibition of cells growth by colorimetric assay (SRB), DU-145; assay type: cell-based; settings: SRB, 48 hours exposure; for GI50 / CC50: Homo sapiens, DU-145, 48 h; for DU-145 TGI / GI50: DU-145; for GI50: read-out: DU-145 GI50; for CC50: read-out: DU-145 LC50, DU-145
Method in brief: as §1

LNCaP = experiment: Inhibition of cells growth by colorimetric assay (SRB), LNCaP; assay type: cell-based; settings: SRB, 48 hours exposure; for GI50 / CC50: Homo sapiens, LNCaP, 48 h; for GI50: read-out: LNCAP GI50, LNCAP; for CC50: read-out: LNCAP LC50, LNCAP
Method in brief: as §1

A-549 = experiment: Inhibition of cells growth by colorimetric assay (SRB), A-549; assay type: cell-based; settings: SRB, 48 hours exposure; for GI50 / LC50 (concentration for 50% cell killing): Homo sapiens, A549, 48 h; for A-549 TGI / GI50: A-549; for GI50: read-out: A-549 GI50; for LC50 (concentration for 50% cell killing): read-out: A-549 LC50, A-549
Method in brief: as §1

IGROV-ET = experiment: Inhibition of cells growth by colorimetric assay (SRB), IGROV-ET; assay type: cell-based; settings: SRB, 48 hours exposure; for GI50 / CC50: Homo sapiens, 48 h; for GI50 / IGROV-ET TGI: IGROV-ET; for GI50: read-out: IGROV-ET GI50; for CC50: read-out: IGROV-ET LC50, IGROV-ET
Method in brief: as §1

PANC-1 = experiment: Inhibition of cells growth by colorimetric assay (SRB), PANC-1; assay type: cell-based; settings: SRB, 48 hours exposure; for GI50 / LC50 (concentration for 50% net cell kill): Homo sapiens, PANC-1, 48 h; for GI50 / PANC-1 TGI: PANC-1; for GI50: read-out: PANC-1 GI50; for LC50 (concentration for 50% net cell kill): read-out: PANC-1 LC50, PANC-1
Method in brief: as §1

K-562 = experiment: Inhibition of cells growth by colorimetric assay (SRB), K-562; assay type: cell-based; settings: SRB, 48 hours exposure; for GI50 / LC50 (50% cell killing): Homo sapiens, K562, 48 h; for GI50 / K-562 TGI: K-562; for GI50: read-out: K-562 GI50; for LC50 (50% cell killing): read-out: K-562 LC50, K-562
Method in brief: as §1

SK-MEL-28 = experiment: Inhibition of cells growth by colorimetric assay (SRB), SK-MEL-28; assay type: cell-based; settings: SRB, 48 hours exposure; for GI50 / CC50: Homo sapiens, SK-MEL-28, 48 h; for GI50 / MEL-28 TGI: MEL-28; for GI50: read-out: MEL-28 GI50; for CC50: read-out: MEL-28 LC50, MEL-28
Method in brief: as §1

Excerpt for Heart: (§2) Toxicity was asssessed by the methods reported in Toxicology in Vitro, 15 (2001) 571-577, J. Luber Narod et al.: “Evaluation of the use of in vitro methodolodies as tools for screening new compounds for potential in vivo toxicity”.
Excerpt for Kidney: as §2
Excerpt for Liver: as §2
Excerpt for Myelo: as §2
Excerpt for Skeletal: as §2

For `COc1cc2c(cc1O)CCN(C)[C@]21CS[C@@H]2c3c(OC(C)=O)c(C)c4c(c3[C@H](COC1=O)N1C2[C@H]2c3c(cc(C)c(OC)c3O)C[C@@H]([C@@H]1O)N2C)OCO4` (stereo partly shown) [Compound 93], the GI50 (LoVo-Dox) was 7.71 nM, the CC50 (LoVo-Dox) was 12900 nM and the “LOVO-DOX TGI” value (LoVo-Dox) was 9.87E-08. For the same compound, the GI50 (LoVo) was 0.768 nM, the LC50 (concentration for 50% cell killing) (LoVo) was 12900 nM and the “LOVO TGI” value (LoVo) was 4.58E-09. For the same compound, the “HT-29 TGI” value (HT-29) was 1.29E-08, the GI50 (HT-29) was 0.635 nM and the LC50 (concentration for 50% cell killing) (HT-29) was 12900 nM. For the same compound, the “Toxicity Data Skeletal” value (Skeletal) was 5.52E-10, the GI50 (IGROV-1) was 0.214 nM and the CC50 (IGROV-1) was 129 nM. The “IGROV TGI” value (IGROV-1) was 6.46E-10, the GI50 (SK-BR-3) was 0.445 nM and the CC50 (SK-BR-3) was 9.5 nM. The “SK-BR3 TGI” value (SK-BR-3) was 1.96E-09, the “HMEC-1 TGI” value (HMEC1) was 1.55E-10 and the GI50 (HMEC1) was 0.037 nM. The LC50 (HMEC1) was 0.487 nM, the GI50 (SK-OV-3) was 0.409 nM and the LC50 (SK-OV-3) was 12900 nM. The “SK-OV3 TGI” value (SK-OV-3) was 1.29E-09, the “DU-145 TGI” value (DU-145) was 6.30E-10 and the GI50 (DU-145) was 0.331 nM. The CC50 (DU-145) was 1.29 nM, the “Toxicity Data Heart” value (Heart) was 4.46E-08 and the GI50 (LNCaP) was 2.85 nM. The CC50 (LNCaP) was 129 nM, the “LNCAP TGI” value (LNCaP) was 6.77E-09 and the “Toxicity Data Myelo” value (Myelo) was 3.35E-09. For the same compound, the “A-549 TGI” value (A-549) was 2.90E-09, the GI50 (A-549) was 0.463 nM and the LC50 (concentration for 50% cell killing) (A-549) was 12.9 nM. For the same compound, the GI50 (IGROV-ET) was 21.5 nM, the CC50 (IGROV-ET) was 12900 nM and the “IGROV-ET TGI” value (IGROV-ET) was 1.31E-07. For the same compound, the “Toxicity Data Kidney” value (Kidney) was 6.32E-08, the GI50 (PANC-1) was 0.314 nM and the LC50 (concentration for 50% net cell kill) (PANC-1) was 12900 nM. For the same compound, the “PANC-1 TGI” value (PANC-1) was 1.29E-09, the GI50 (K-562) was 0.611 nM and the LC50 (50% cell killing) (K-562) was 9540 nM. The “K-562 TGI” value (K-562) was 1.29E-08, the “Toxicity Data Liver” value (Liver) was 1.13E-08 and the GI50 (SK-MEL-28) was 0.281 nM. The CC50 (SK-MEL-28) was 3.58 nM and the “MEL-28 TGI” value (SK-MEL-28) was 6.24E-10.
In the case of `COC1=C(C)C(=O)C2=C(C1=O)[C@@H]1C3[C@@H]4SC[C@]5(NCCc6cc(O)c(OC)cc65)C(=O)OC[C@@H](c5c6c(c(C)c(OC(C)=O)c54)OCO6)N3[C@@H](O)[C@H](C2)N1C` (stereo partly shown) [Compound 101], the GI50 (LoVo-Dox) is reported as 251 nM, the CC50 (LoVo-Dox) is reported as 12900 nM and the “LOVO-DOX TGI” value (LoVo-Dox) is reported as 9.29E-07. The GI50 (LoVo) was 13.4 nM, the LC50 (concentration for 50% cell killing) (LoVo) was 219 nM and the “LOVO TGI” value (LoVo) was 4.68E-08. For the same compound, the “HT-29 TGI” value (HT-29) was 1.03E-08, the GI50 (HT-29) was 3.57 nM and the LC50 (concentration for 50% cell killing) (HT-29) was 12900 nM. The “Toxicity Data Skeletal” value (Skeletal) was 3.40E-09, the GI50 (IGROV-1) was 2.5 nM and the CC50 (IGROV-1) was 10.7 nM. For the same compound, the “IGROV TGI” value (IGROV-1) was 5.17E-09, the GI50 (SK-BR-3) was 2.63 nM and the CC50 (SK-BR-3) was 46.8 nM. For the same compound, the “SK-BR3 TGI” value (SK-BR-3) was 6.44E-09, the “HMEC-1 TGI” value (HMEC1) was 1.17E-08 and the GI50 (HMEC1) was 3.05 nM. The LC50 (HMEC1) was 12900 nM, the GI50 (SK-OV-3) was 4.49 nM and the LC50 (SK-OV-3) was 12900 nM. For the same compound, the “SK-OV3 TGI” value (SK-OV-3) was 9.77E-09, the “DU-145 TGI” value (DU-145) was 7.46E-09 and the GI50 (DU-145) was 3.74 nM. For the same compound, the CC50 (DU-145) was 17.9 nM, the “Toxicity Data Heart” value (Heart) was 7.67E-08 and the GI50 (LNCaP) was 2.5 nM. The CC50 (LNCaP) was 7.71 nM, the “LNCAP TGI” value (LNCaP) was 4.40E-09 and the “Toxicity Data Myelo” value (Myelo) was 1.96E-08. For the same compound, the “A-549 TGI” value (A-549) was 6.52E-09, the GI50 (A-549) was 3.69 nM and the LC50 (concentration for 50% cell killing) (A-549) was 11.5 nM. For the same compound, the GI50 (IGROV-ET) was 30.5 nM, the CC50 (IGROV-ET) was 246 nM and the “IGROV-ET TGI” value (IGROV-ET) was 6.88E-08. The “Toxicity Data Kidney” value (Kidney) was 3.17E-08, the GI50 (PANC-1) was 5.66 nM and the LC50 (concentration for 50% net cell kill) (PANC-1) was 1340 nM. The “PANC-1 TGI” value (PANC-1) was 2.27E-08, the GI50 (K-562) was 0.25 nM and the LC50 (50% cell killing) (K-562) was 19.2 nM. The “K-562 TGI” value (K-562) was 6.20E-10, the “Toxicity Data Liver” value (Liver) was 5.40E-08 and the GI50 (SK-MEL-28) was 3.35 nM. For the same compound, the CC50 (SK-MEL-28) was 26 nM and the “MEL-28 TGI” value (SK-MEL-28) was 7.02E-09.
